Measurements as given in patent US20220298213A1, “IN VIVO ENGINEERED CEREBLON PROTEIN” (Vividion Therapeutics, Inc., priority 2018, published 2022).
Read-outs that look alike come from different tables or passages of the source.

Columns and labels:
Protein-A = details: PBMC lysates
Protein-B = test: Cysteine probe labeling after IMiD pretreatment, PBMC lysates (Table 4); assay type: binding
CRBN-287 = CRBN-287 (Homo sapiens, UniProt Q96SW2); test: as above; assay type: binding; set-up: endogenous in cells; host or cells: PBMC lysates; details: read-out: inhibition of cysteine probe labeling, CRBN-287
Chain of CRBN-287 (Q96SW2 whole entry): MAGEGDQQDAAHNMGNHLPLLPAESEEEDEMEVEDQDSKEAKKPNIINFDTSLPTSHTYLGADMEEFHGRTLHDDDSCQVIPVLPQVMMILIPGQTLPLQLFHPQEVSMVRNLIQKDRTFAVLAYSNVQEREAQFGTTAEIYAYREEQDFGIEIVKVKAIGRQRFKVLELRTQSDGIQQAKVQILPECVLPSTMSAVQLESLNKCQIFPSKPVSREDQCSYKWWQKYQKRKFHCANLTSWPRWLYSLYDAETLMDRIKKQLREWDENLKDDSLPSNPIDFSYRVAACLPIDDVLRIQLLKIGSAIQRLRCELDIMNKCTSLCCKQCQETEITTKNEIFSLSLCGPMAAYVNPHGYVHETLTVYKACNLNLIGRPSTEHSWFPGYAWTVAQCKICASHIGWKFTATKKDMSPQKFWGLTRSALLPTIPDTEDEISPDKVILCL

Protein-C = test: as above; assay type: binding
CRBN-318 = CRBN-318 (Homo sapiens, UniProt Q96SW2); test: as above; assay type: binding; set-up: endogenous in cells; host or cells: PBMC lysates; details: read-out: inhibition of cysteine probe labeling, CRBN-318
Chain of CRBN-318 (Q96SW2 whole entry): as above

Structure (SMILES): O=C1CCC(N2Cc3c(OCc4ccc(CN5CCOCC5)cc4)cccc3C2=O)C(=O)N1 (stereo not drawn) [CC-220]
- inhibition of cysteine probe labeling, Protein-A (Protein-A; 2 μM): 16
- inhibition of cysteine probe labeling, Protein-A (Protein-A; 20 μM): 19
- inhibition of cysteine probe labeling, Protein-A (Protein-A; 50 μM): 13
- inhibition of cysteine probe labeling, Protein-B (Protein-B; 2 μM): 23
- inhibition of cysteine probe labeling, Protein-B (Protein-B; 20 μM): 11
- inhibition of cysteine probe labeling, Protein-B (Protein-B; 50 μM): 17
- inhibition at 2 µM (CRBN-287): 75%
- inhibition at 20 µM (CRBN-287): 77%
- inhibition at 50 µM (CRBN-287): 81%
- inhibition of cysteine probe labeling, Protein-C (Protein-C; 2 μM): 0
- inhibition of cysteine probe labeling, Protein-C (Protein-C; 20 μM): 2
- inhibition of cysteine probe labeling, Protein-C (Protein-C; 50 μM): 0
- inhibition at 2 µM (CRBN-318): 70%
- inhibition at 20 µM (CRBN-318): 70%
- inhibition at 50 µM (CRBN-318): 72%

Structure (SMILES): Nc1cccc2c1C(=O)N(C1CCC(=O)NC1=O)C2=O (stereo not drawn) [Pomalidomide]
- inhibition of cysteine probe labeling, Protein-A (Protein-A; 20 μM): 8
- inhibition of cysteine probe labeling, Protein-A (Protein-A; 100 μM): 10
- inhibition of cysteine probe labeling, Protein-A (Protein-A; 500 μM): 13
- inhibition of cysteine probe labeling, Protein-B (Protein-B; 20 μM): 0
- inhibition of cysteine probe labeling, Protein-B (Protein-B; 100 μM): 14
- inhibition of cysteine probe labeling, Protein-B (Protein-B; 500 μM): 0
- inhibition at 100 µM (CRBN-287): 70%
- inhibition at 500 µM (CRBN-287): 75%
- inhibition of cysteine probe labeling, Protein-C (Protein-C; 20 μM): 10
- inhibition of cysteine probe labeling, Protein-C (Protein-C; 100 μM): 1
- inhibition of cysteine probe labeling, Protein-C (Protein-C; 500 μM): 10
- inhibition at 20 µM (CRBN-318): 59%
